Test results taken from US20050014811A1, “Substituted benzimidazole compounds and their use for the treatment of cancer” (Aventis Pharma S.A., priority 2001, published 2005).

target: CDK4/CyclinD1 (Homo sapiens, UniProt P11802); assay: CDK4/CyclinD1 Flashplate assay, 96-well format, biotinylated-Rb peptide substrate; type: biochemical
Experimental: This is a CDK4/CyclinD1 kinase assay in a 96-well Streptavidin-coated Flashplate with a biotinylated-Rb peptide substrate.
Each point is tested in duplicate
Biotinylated-Rb: Biotin-[…]
• 1. Prepare substrate: 1 mg/ml solution made fresh in PBS. • 2. Add 100 μg per well to the Flashplate. • 3. Incubate for 2 hours at RT. • 4. From 10 mM inhibitor stocks in DMSO, make 1 mM, 300 μM, 100 μM, 30 μM and 10 μM series of dilution in DMSO. • 5. Wash the Flashplate 3 times with 300 μl PBS to remove unbound peptide substrate. • 6. Add the CDK4/CyclinD1 kinase: 70 ng per well, in a volume of 90 μl in kinase buffer (except for “no enzyme” control wells). • 7. Add 1 μl^1 per well of inhibitor to test 10 μM, 3 μM, 1 μM, 0.3 μM and 0.1 μM in final concentration per 100 μl in each well. • 8. Shake gently the Flashplate 1 minute. • 9. Incubate 30 minutes on wet ice. • 10. Initiate the reaction with 10 μl kinase buffer containing 1 μM final cold ATP and 1 μCi final ^33P-ATP per well. • 11. Shake gently the Flashplate 1 minute. • 12. Incubate 45 minutes at RT (no shaking). • 13. Wash the Flashplate 3 times with 300 μl PBS • 14. Count to detect the incorporation of ^33P-ATP by the kinase to the Rb phosphorylation site.

Chain of CDK4/CyclinD1 (P11802 whole entry, species assumed): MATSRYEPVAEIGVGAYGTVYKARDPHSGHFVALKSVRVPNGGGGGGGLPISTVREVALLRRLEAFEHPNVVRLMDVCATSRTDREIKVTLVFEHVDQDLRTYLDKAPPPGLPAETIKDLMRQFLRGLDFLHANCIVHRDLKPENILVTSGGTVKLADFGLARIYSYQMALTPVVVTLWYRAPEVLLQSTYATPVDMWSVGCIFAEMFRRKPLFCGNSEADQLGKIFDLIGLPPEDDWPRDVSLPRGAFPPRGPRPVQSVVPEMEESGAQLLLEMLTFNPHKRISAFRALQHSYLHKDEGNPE
Chain of CDK4/CyclinD1 (P24385 whole entry partner, species assumed): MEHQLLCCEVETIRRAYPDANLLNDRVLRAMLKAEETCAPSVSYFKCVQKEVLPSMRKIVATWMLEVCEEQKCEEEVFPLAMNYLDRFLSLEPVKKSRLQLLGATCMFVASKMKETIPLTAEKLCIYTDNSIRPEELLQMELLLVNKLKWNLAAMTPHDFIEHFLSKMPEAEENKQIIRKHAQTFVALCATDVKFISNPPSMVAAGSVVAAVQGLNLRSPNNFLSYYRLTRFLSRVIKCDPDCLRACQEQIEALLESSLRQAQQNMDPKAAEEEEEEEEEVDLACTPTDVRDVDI

In order of falling IC50:
1. CCOC(=O)C1CCN(C(=O)Nc2nc3cc(OS(=O)(=O)c4ccc(NC5CCCC5)cc4)ccc3[nH]2)CC1 [Example 58-t, 1-[5-(4-Cyclopentylamino-benzenesulfonyloxy)-1H-benzoimidazol-2-yl-carbamoyl]-piperidine-4-carboxylic acid ethyl ester]  9 µM
2. NC(=O)C1CCCCC1Nc1ccc(S(=O)(=O)Oc2ccc3[nH]c(NC(=O)C4CC4)nc3c2)cc1 (stereo not shown) [Example 60-ab, 4-(2-Carbamoyl-cyclohexylamino)-benzenesulfonic acid 2-(cyclopropanecarbonyl-amino)-1H-benzoimidazol-5-yl ester]  4 µM
3. O=C(Nc1nc2cc(OS(=O)(=O)c3ccc(NCCN4CCNCC4)cc3)ccc2[nH]1)C1CC1 [Example 60-aa, 4-(2-Piperazin-1-yl-ethylamino)-benzene-sulfonic acid 2-(cyclopropanecarbonyl-amino)-1H-benzoimidazol-5-yl ester]  3.9 µM
4. CCC(C)(C)NC(=O)Nc1nc2cc(OS(=O)(=O)c3ccc(NC4CCCC4)cc3)ccc2[nH]1 [Example 58-z, 4-Cyclopentylamino-benzenesulfonic acid 2-[3-(1,1-dimethyl-propyl)-ureido]-1H-benzoimidazol-5-yl ester]  2.23 µM
5. O=C(Nc1nc2cc(OS(=O)(=O)c3ccc(NCCCN4CCCC4=O)cc3)ccc2[nH]1)C1CC1 [Example 60-ae, 4-[3-(2-Oxo-pyrrolidin-1-yl)-propylamino]-benzenesulfonic acid 2-(cyclopropanecarbonyl-amino)-1H-benzoimidazol-5-yl ester]  2.2 µM
6. COC(=O)Nc1nc2cc(OS(=O)(=O)c3ccc(NCC(C)O)cc3)ccc2[nH]1 (stereo not shown) [Example 9, Methyl-5-(4-[2-methyl,2-hydroxyethyl]aminophenyl-sulfonyloxy) benzimidazole-2-carbamate]  2 µM
7. CN1CCN(CCCNc2ccc(S(=O)(=O)Oc3ccc4[nH]c(NC(=O)C5CC5)nc4c3)cc2)CC1 [Example 60-n, 4-[3-(4-Methyl-piperazin-1-yl)-propylamino]-benzenesulfonic acid 2-(cyclopropanecarbonyl-amino)-1H-benzoimidazol-5-yl ester]  2 µM
8. CCN(CC)CCNc1ccc(S(=O)(=O)Oc2ccc3[nH]c(NC(=O)C4CC4)nc3c2)cc1 [Example 60-q, 4-(2-Diethylamino-ethylamino)-benzenesulfonic acid 2-(cyclopropanecarbonyl-amino)-1H-benzoimidazol-5-yl ester]  1.8 µM
9. Nc1nc2cc(OS(=O)(=O)c3ccc(NC4CCCC4)cc3)ccc2[nH]1 [Example 22, 5-(4-cyclopentylaminophenylsulfonyloxy)-1H-benzimidazole-2-ylamine]  1.77 µM
10. O=C(Nc1nc2cc(OS(=O)(=O)c3ccc(NCCOCCO)cc3)ccc2[nH]1)C1CC1 [Example 60-ai, 4-[2-(2-Hydroxy-ethoxy)-ethylamino]-benzenesulfonic acid 2-(cyclopropanecarbonyl-amino)-1H-benzoimidazol-5-yl ester]  1.6 µM
11. O=C(Nc1nc2cc(OS(=O)(=O)c3ccc(NCCN4CCCC4)cc3)ccc2[nH]1)C1CC1 [Example 60-g, 4-(2-Pyrrolidin-1-yl-ethylamino)-benzenesulfonic acid 2-(cyclopropanecarbonyl-amino)-1H-benzoimidazol-5-yl ester]  1.5 µM
12. NC(=O)C1CCCN1C(=O)Nc1nc2cc(OS(=O)(=O)c3ccc(NC4CCCC4)cc3)ccc2[nH]1 (stereo not drawn) [Example 58-ae, 4-Cyclopentylamino-benzenesulfonic acid 2-[(2S-carbamoyl-pyrrolidine-1-carbonyl)-amino]-1H-benzoimidazol-5-yl ester]  1.49 µM
13. NCCNCCNc1ccc(S(=O)(=O)Oc2ccc3[nH]c(NC(=O)C4CC4)nc3c2)cc1 [Example 60-ad, 4-[2-(2-Amino-ethylamino)-ethylamino]-benzenesulfonic acid 2-(cyclopropanecarbonyl-amino)-1H-benzoimidazol-5-yl ester]  1.3 µM
14. O=C(Nc1nc2cc(OS(=O)(=O)c3ccc(NC4CCC(O)CC4)cc3)ccc2[nH]1)C1CC1 (stereo not shown) [Example 60-p, 4-(4-Hydroxy-cyclohexylamino)-benzenesulfonic acid 2-(cyclopropanecarbonyl-amino)-1H-benzoimidazol-5-yl ester]  1.2 µM
15. COC(=O)Nc1nc2cc(OS(=O)(=O)c3ccc(NC(C)CO)cc3)ccc2[nH]1 (stereo not shown) [Example 8, Methyl-5-(4-[1-methyl,2-hydroxyethyl]aminophenyl-sulfonyloxy) benzimidazole-2-carbamate]  1.1 µM
16. O=C(O)[C@@H]1CCCN1C(=O)Nc1nc2cc(OS(=O)(=O)c3ccc(NC4CCCC4)cc3)ccc2[nH]1 [Example 58-q, 1-[5-(4-Cyclopentylamino-benzenesulfonyloxy)-1H-benzoimidazol-2S-ylcarbamoyl]-pyrrolidine-2-carboxylic acid]  1 µM
17. COCC(C)Nc1ccc(S(=O)(=O)Oc2ccc3[nH]c(NC(=O)C4CC4)nc3c2)cc1 (stereo not shown) [Example 60-f, 4-(2-Methoxy-1-methyl-ethylamino)-benzenesulfonic acid 2-(cyclopropanecarbonyl-amino)-1H-benzoimidazol-5-yl ester]  1 µM
18. O=C(Nc1nc2cc(OS(=O)(=O)c3ccc(NCCCO)cc3)ccc2[nH]1)C1CC1 [Example 60-d, 4-(3-Hydroxy-propylamino)-benzenesulfonic acid 2-(cyclopropanecarbonyl-amino)-1H-benzoimidazo1-5-yl ester]  0.9 µM
19. O=C(Nc1nc2cc(OS(=O)(=O)c3ccc(NCCCCO)cc3)ccc2[nH]1)C1CC1 [Example 60-e, 4-(4-Hydroxy-butylamino)-benzenesulfonic acid 2-(cyclopropanecarbonyl-amino)-1H-benzoimidazol-5-yl ester]  0.9 µM
20. 4-Benzylamino-benzenesulfonic acid 2-(cyclopropanecarbonyl-amino)-1H-benzoimidazol-5-yl ester [Example 60-a]  0.8 µM
21. CC(=O)NCCNc1ccc(S(=O)(=O)Oc2ccc3[nH]c(NC(=O)C4CC4)nc3c2)cc1 [Example 60-ac, 4-(2-Acetylamino-ethylamino)-benzenesulfonic acid 2-(cyclopropanecarbonyl-amino)-1H-benzoimidazol-5-yl ester]  0.8 µM
22. CCOC(=O)CCCNC(=O)Nc1nc2cc(OS(=O)(=O)c3ccc(NC4CCCC4)cc3)ccc2[nH]1 [Example 58-n, 4-{3-[5-(4-Cyclopentylamino-benzenesulfonyloxy)-1H-benzoimidazol-2-yl]-ureido}-butyric acid ethyl ester]  0.6 µM
23. O=C(NCCCn1ccnc1)Nc1nc2cc(OS(=O)(=O)c3ccc(NC4CCCC4)cc3)ccc2[nH]1 [Example 58-p, 4-Cyclopentylamino-benzenesulfonic acid 2-[3-(3-imidazol-1-yl-propyl)-ureido]-1H-benzoimidazol-5-yl ester]  0.6 µM
24. CC[C@@H](CO)Nc1ccc(S(=O)(=O)Oc2ccc3[nH]c(NC(=O)C4CC4)nc3c2)cc1 [Example 60-r, 4-(1S-Hydroxymethyl-propylamino)-benzenesulfonic acid 2-(cyclopropanecarbonyl-amino)-1H-benzoimidazol-5-yl ester]  0.6 µM
25. O=C(Nc1nc2cc(OS(=O)(=O)c3ccc(NC4CCC4)cc3)ccc2[nH]1)C1CC1 [Example 60-ah, 4-Cyclobutylamino-benzenesulfonic acid 2-(cyclopropanecarbonyl-amino)-1H-benzoimidazol-5-yl ester]  0.55 µM
26. O=C(Nc1nc2cc(OS(=O)(=O)c3ccc(NCc4cccnc4)cc3)ccc2[nH]1)C1CC1 [Example 60-m, 4-[(Pyridin-3-yl-methyl)-amino]-benzenesulfonic acid 2-(cyclopropanecarbonyl-amino)-1H-benzoimidazol-5-yl ester]  0.5 µM
27. CC(C)(CO)CNc1ccc(S(=O)(=O)Oc2ccc3[nH]c(NC(=O)C4CC4)nc3c2)cc1 [Example 60-l, 4-(3-Hydroxy-2,2-dimethyl-propylamino)-benzenesulfonic acid 2-(cyclopropanecarbonyl-amino)-1H-benzoimidazol-5-yl ester]  0.4 µM
28. O=C(Nc1nc2cc(OS(=O)(=O)c3ccc(NCCO)cc3)ccc2[nH]1)C1CC1 [Example 60-c, 4-(2-Hydroxy-ethylamino)-benzenesulfonic acid 2-(cyclopropanecarbonyl-amino)-1H-benzoimidazol-5-yl ester]  0.34 µM
29. CC(CO)Nc1ccc(S(=O)(=O)Oc2ccc3[nH]c(NC(=O)C4CC4)nc3c2)cc1 (stereo not shown) [Example 60-i, 4-(2-Hydroxy-1-methyl-ethylamino)-benzenesulfonic acid 2-(cyclopropanecarbonyl-amino)-1H-benzoimidazol-5-yl ester]  0.3 µM
30. CNc1ccc(S(=O)(=O)Oc2ccc3[nH]c(NC(=O)C4CC4)nc3c2)cc1 [Example 60-b, 4-Methylamino-benzenesulfonic acid 2-(cyclopropanecarbonyl-amino)-1H-benzoimidazol-5-yl ester]  0.15 µM

`CCCCNc1ccc(S(=O)(=O)Oc2ccc3[nH]c(NC(=O)OC)nc3c2)cc1` [Example 12, Methyl-5-(4-butylaminophenylsulfonyloxy) benzimidazole-2-carbamate] showed an inhibition at 10 µM of 14%.
